In one test the target is T1, His-hMAGL (recombinant polyhistidine tagged human MAGL protein) (Homo sapiens, UniProt Q99685).
T1 construct: made in house; host or cells: E. coli BL21(DE3)
T1 sequence (Q99685 1-303): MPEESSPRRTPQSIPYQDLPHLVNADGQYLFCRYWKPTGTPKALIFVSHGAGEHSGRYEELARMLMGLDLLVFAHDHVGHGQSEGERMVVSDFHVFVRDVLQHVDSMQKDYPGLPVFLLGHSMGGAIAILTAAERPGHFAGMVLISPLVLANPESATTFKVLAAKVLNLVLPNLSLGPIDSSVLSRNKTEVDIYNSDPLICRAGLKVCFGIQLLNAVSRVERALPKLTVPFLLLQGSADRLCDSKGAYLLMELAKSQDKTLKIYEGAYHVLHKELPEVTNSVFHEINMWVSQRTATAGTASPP
Nature of the test: Measurement of MAGL inhibitory activity (arachidonic acid production from 2-arachidonylglycerol, RapidFire-mass spectrometry). In kind it is biochemical. The conditions noted are these: MAGL inhibitory rate at 10 μM test compound; 60 min preincubation with His-hMAGL, 2-arachidonylglycerol substrate, 10 min reaction at room temperature. In outline:
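Recombinant His-tagged human MAGL converted 2-arachidonylglycerol to arachidonic acid. Reactions received acetonitrile with 3 μM arachidonic acid-d8 as internal standard, and product was quantified by RapidFire SPE (C4) with negative-mode SRM mass spectrometry. Percent inhibition was calculated against compound-free and enzyme-free controls.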
With `O=C1COc2cc(F)c(C(=O)N3CC(OCc4cccc(F)c4)C3)cc2N1` [Example 331, 7-fluoro-6-((3-((3-fluorobenzyl)oxy)azetidin-1-yl)carbonyl)-2H-1,4-benzoxazin-3(4H)-one], the inhibition at 10 µM is 100%.

Consider `O=C1COc2cc(F)c(C(=O)N3CC(COc4ccc(Cl)cc4-c4ccc(Cl)nc4)C3)cc2N1` [Example 205, 6-((3-((4-chloro-2-(6-chloropyridin-3-yl)phenoxy)methyl)azetidin-1-yl)carbonyl)-7-fluoro-2H-1,4-benzoxazin-3(4H)-one], for which the inhibition at 10 µM was 103%. For `O=C1COc2cc(F)c(C(=O)N3CC(COc4ccc(Cl)cc4-c4ccncc4F)C3)cc2N1` [Example 209, 6-((3-((4-chloro-2-(3-fluoropyridin-4-yl)phenoxy)methyl)azetidin-1-yl)carbonyl)-7-fluoro-2H-1,4-benzoxazin-3(4H)-one], the inhibition at 10 µM is 101%.

As for `O=C1COc2c(F)cc(C(=O)N3CCC(COc4ccc(F)cc4Cl)CC3)cc2N1` [Example 32, 6-((4-((2-chloro-4-fluorophenoxy)methyl)piperidin-1-yl)carbonyl)-8-fluoro-2H-1,4-benzoxazin-3(4H)-one], the inhibition at 10 µM was found to be 99%.

On to `O=C1COc2cc(F)c(C(=O)N3CC(COc4ccc(-c5ccncc5)cc4F)C3)cc2N1` [Example 239, 7-fluoro-6-((3-((2-fluoro-4-(pyridin-4-yl)phenoxy)methyl)azetidin-1-yl)carbonyl)-2H-1,4-benzoxazin-3(4H)-one], for which the inhibition at 10 µM came out at 100%. The same measure, in the same setting: with `O=C1COc2ccc(C(=O)N3CCC(F)(COc4ccc(F)cc4Cl)CC3)cc2N1` [Example 27, 6-((4-((2-chloro-4-fluorophenoxy)methyl)-4-fluoropiperidin-1-yl)carbonyl)-2H-1,4-benzoxazin-3(4H)-one] the figure was 101%. `CCc1ncccc1-c1ccc(OCC2CN(C(=O)c3cc4c(cc3F)OCC(=O)N4)C2)c(F)c1` [Example 233, 6-((3-((4-(2-ethylpyridin-3-yl)-2-fluorophenoxy)methyl)azetidin-1-yl)carbonyl)-7-fluoro-2H-1,4-benzoxazin-3(4H)-one]: the inhibition at 10 µM turned out to be 100%. Turning to `COc1cc(Cl)ccc1OCC1CN(C(=O)c2cc3c(cc2F)OCC(=O)N3)C1` [Example 115, 6-((3-((4-chloro-2-methoxyphenoxy)methyl)azetidin-1-yl)carbonyl)-7-fluoro-2H-1,4-benzoxazin-3(4H)-one], the inhibition at 10 µM was 103%.

Turning to `Cc1nc2cc(OCC3CN(C(=O)c4cc5c(cc4F)OCC(=O)N5)C3)ccc2s1` [Example 151, 7-fluoro-6-((3-(((2-methyl-1,3-benzothiazol-5-yl)oxy)methyl)azetidin-1-yl)carbonyl)-2H-1,4-benzoxazin-3(4H)-one], the inhibition at 10 µM came out at 92%. For `Cc1ccc(OCC2CCN(C(=O)c3ccc4c(c3)NC(=O)CO4)CC2)c(Cl)n1` [Example 40, 6-((4-(((2-chloro-6-methylpyridin-3-yl)oxy)methyl)piperidin-1-yl)carbonyl)-2H-1,4-benzoxazin-3(4H)-one], the inhibition at 10 µM worked out at 95%. The same measure, in the same setting: with `O=C1COc2cc(F)c(C(=O)N3CC(OCc4ccc(Cl)cc4Cl)C3)cc2N1` [Example 324, 6-((3-((2,4-dichlorobenyzl)oxy)azetidin-1-yl)carbonyl)-7-fluoro-2H-1,4-benzoxazin-3(4H)-one] the figure was 102%. As for `O=C1COc2cc(F)c(C(=O)N3CC(COc4ccc(Cl)cc4-c4cnn(C5CC5)c4)C3)cc2N1` [Example 215, 6-((3-((4-chloro-2-(1-cyclopropyl-1H-pyrazol-4-yl)phenoxy)methyl)azetidin-1-yl)carbonyl)-7-fluoro-2H-1,4-benzoxazin-3(4H)-one], the inhibition at 10 µM was 99%. The same measure, in the same setting: with `Cc1cncc(-c2ccc(OCC3CN(C(=O)c4cc5c(cc4F)OCC(=O)N5)C3)c(F)c2)c1` [Example 236, 7-fluoro-6-((3-((2-fluoro-4-(5-methylpyridin-3-yl)phenoxy)methyl)azetidin-1-yl)carbonyl)-2H-1,4-benzoxazin-3(4H)-one] the figure was 99%; with `CC(C)(C)c1ccccc1OCC1CN(C(=O)c2cc3c(cc2F)OCC(=O)N3)C1` [Example 167, 6-((3-((2-tert-butylphenoxy)methyl)azetidin-1-yl)carbonyl)-7-fluoro-2H-1,4-benzoxazin-3(4H)-one], 100%; with `O=C1COc2cc(F)c(C(=O)N3CC(OCc4cccc(OC(F)F)c4)C3)cc2N1` [Example 340], 100%.

As to `O=C1COc2cc(F)c(C(=O)N3CC(COc4cccc(Cl)c4F)C3)cc2N1` [Example 135, 6-((3-((3-chloro-2-fluorophenoxy)methyl)azetidin-1-yl)carbonyl)-7-fluoro-2H-1,4-benzoxazin-3(4H)-one], the inhibition at 10 µM stood at 101%. The same measure, in the same setting: to `O=C1COc2cc(F)c(C(=O)N3CC(COc4cc(Cl)ccc4Cl)C3)cc2N1` [Example 125, 6-((3-((2,5-dichlorophenoxy)methyl)azetidin-1-yl)carbonyl)-7-fluoro-2H-1,4-benzoxazin-3(4H)-one] belongs 98%. On the same count and under the same terms, to `O=C(c1ccc2ccc(=O)[nH]c2c1)N1CCC(COc2ccc(F)cc2Cl)CC1` [Example 79, 7-((4-((2-chloro-4-fluorophenoxy)methyl)piperidin-1-yl)carbonyl)quinolin-2(1H)-one] belongs 103%; to `O=C1COc2cc(F)c(C(=O)N3CC(COc4ccc(Cl)cc4-c4cnc(C(F)(F)F)nc4)C3)cc2N1` [Example 222, 6-((3-((4-chloro-2-(2-(trifluoromethyl)pyrimidin-5-yl)phenoxy)methyl)azetidin-1-yl)carbonyl)-7-fluoro-2H-1,4-benzoxazin-3(4H)-one], 101%. On the same count and under the same terms, with `O=C(c1ccc2oc(=O)[nH]c2c1)N1CCC(COc2ccccc2Cl)CC1` [Example 29, 5-((4-((2-chlorophenoxy)methyl)piperidin-1-yl)carbonyl)-1,3-benzoxazol-2(3H)-one] the figure was 96%; with `O=C1COc2cc(F)c(C(=O)N3CCC(COc4ccc(Cl)nc4Cl)CC3)cc2N1` [Example 71, 6-((4-(((2,6-dichloropyridin-3-yl)oxy)methyl)piperidin-1-yl)carbonyl)-7-fluoro-2H-1,4-benzoxazin-3(4H)-one], 100%; with `Cc1cc(OCC2CN(C(=O)c3cc4c(cc3F)OCC(=O)N4)C2)n(-c2ccccn2)n1` [Example 178, 7-fluoro-6-((3-(((3-methyl-1-(pyridin-2-yl)-1H-pyrazol-5-yl)oxy)methyl)azetidin-1-yl)carbonyl)-2H-1,4-benzoxazin-3(4H)-one], 94%. On to `Cc1nc(F)ccc1-c1ccc(OCC2CN(C(=O)c3cc4c(cc3F)OCC(=O)N4)C2)c(F)c1` [Example 290, 7-fluoro-6-((3-((2-fluoro-4-(6-fluoro-2-methylpyridin-3-yl)phenoxy)methyl)azetidin-1-yl)carbonyl)-2H-1,4-benzoxazin-3(4H)-one], for which the inhibition at 10 µM was 100%.

With `O=C1COc2ccc(C(=O)N3CCC(COc4cccc5ccccc45)CC3)cc2N1` [Example 59, 6-((4-((1-naphthyloxy)methyl)piperidin-1-yl)carbonyl)-2H-1,4-benzoxazin-3(4H)-one], the inhibition at 10 µM came to 102%. Still for that read-out and setting: to `O=C1COc2cc(F)c(C(=O)N3CC(COc4ccc(Cl)cc4-c4cncc(F)c4)C3)cc2N1` [Example 200, 6-((3-((4-chloro-2-(5-fluoropyridin-3-yl)phenoxy)methyl)azetidin-1-yl)carbonyl)-7-fluoro-2H-1,4-benzoxazin-3(4H)-one] belongs 102%; to `O=C1COc2cc(F)c(C(=O)N3CC(COc4cc(F)ccc4Cl)C3)cc2N1` [Example 132, 6-((3-((2-chloro-5-fluorophenoxy)methyl)azetidin-1-yl)carbonyl)-7-fluoro-2H-1,4-benzoxazin-3(4H)-one], 99%. On to `N#Cc1cccc(OCC2CCN(C(=O)c3ccc4c(c3)NC(=O)CO4)CC2)c1` [Example 48, 3-((1-((3-oxo-3,4-dihydro-2H-1,4-benzoxazin-6-yl)carbonyl)piperidin-4-yl)methoxy)benzonitrile], for which the inhibition at 10 µM was 89%. The same measure, in the same setting: with `N#CC1(COc2ccc(F)cc2Cl)CCN(C(=O)c2cc3c(cc2F)OCC(=O)N3)CC1` [Example 81, 4-((2-chloro-4-fluorophenoxy)methyl)-1-((7-fluoro-3-oxo-3,4-dihydro-2H-1,4-benzoxazin-6-yl)carbonyl)piperidine-4-carbonitrile] the figure was 99%.

Staying with this test, now noted: MAGL inhibitory rate at 10 μM test compound; 60 min preincubation with His-hMAGL, 2-arachidonylglycerol substrate, 10 min reaction at room temperature; 10 µM.
In the case of `CC(Oc1cc(F)ccc1F)C1CN(C(=O)c2cc3c(cc2F)OCC(=O)N3)C1` (stereo not shown) [Example 319, 6-((3-(1-(2,5-difluorophenoxy)ethyl)azetidin-1-yl)carbonyl)-7-fluoro-2H-1,4-benzoxazin-3(4H)-one], the “% inhibition (10 μM)” value stood at 101%.

`CC(Oc1ccc(F)c(F)c1)C1CN(C(=O)c2cc3c(cc2F)OCC(=O)N3)C1` (stereo not shown) [Example 312, 6-((3-(1-(3,4-difluorophenoxy)ethyl)azetidin-1-yl)carbonyl)-7-fluoro-2H-1,4-benzoxazin-3(4H)-one]: the “% inhibition (10 μM)” value was determined as 101%. Same read-out and setting: with `CC(Oc1ccc(F)cc1F)C1CN(C(=O)c2cc3c(cc2F)OCC(=O)N3)C1` (stereo not shown) [Example 300, 6-((3-(1-(2,4-difluorophenoxy)ethyl)azetidin-1-yl)carbonyl)-7-fluoro-2H-1,4-benzoxazin-3(4H)-one] the figure was 102%.

(Values after patent US10106556B2, “Heterocyclic compound” (TAKEDA PHARMACEUTICAL COMPANY LIMITED, priority 2015, dated 2018).)
